From article PMC4172859, “Positive Darwinian selection is a driving force for the diversification of terpenoid biosynthesis in the genus Oryza” (BMC Plant Biology, 2014)

Columns and labels:
Experiment in all cases: SPME GC-MS product analysis, recombinant E. coli extract
Format in all cases: biochemical
Conditions in all cases: 10 uM FPP, 10 mM MgCl2, pH 7.0, 30 °C; mere turnover
ObTPS1 [1] = target: T1, ObTPS1 (Oryza barthii, UniProt A0A0D3GW75)
T1 construct: full-length cDNA in pEXP5-CT/TOPO, E. coli BL21 Codon Plus, desalted extract
T1 sequence (A0A0D3GW75 1-575): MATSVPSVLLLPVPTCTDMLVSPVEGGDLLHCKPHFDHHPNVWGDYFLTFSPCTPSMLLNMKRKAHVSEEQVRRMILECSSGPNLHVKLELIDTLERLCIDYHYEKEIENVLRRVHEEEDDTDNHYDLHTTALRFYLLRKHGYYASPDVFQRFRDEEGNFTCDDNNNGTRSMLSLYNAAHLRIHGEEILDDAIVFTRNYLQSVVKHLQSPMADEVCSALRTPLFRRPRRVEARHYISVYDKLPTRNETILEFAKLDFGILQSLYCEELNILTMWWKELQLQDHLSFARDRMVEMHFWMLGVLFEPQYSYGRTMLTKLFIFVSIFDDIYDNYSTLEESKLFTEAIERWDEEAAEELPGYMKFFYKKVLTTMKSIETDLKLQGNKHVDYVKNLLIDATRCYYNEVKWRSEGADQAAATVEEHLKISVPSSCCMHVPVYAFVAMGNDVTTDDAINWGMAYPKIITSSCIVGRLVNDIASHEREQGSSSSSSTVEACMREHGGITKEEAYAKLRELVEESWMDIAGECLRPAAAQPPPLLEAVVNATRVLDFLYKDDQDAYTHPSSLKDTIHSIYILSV

[2] = target: T2, OryzaTPS1 (O. glaberrima) (Oryza glaberrima, UniProt I1QFJ1)
T2 construct: gene LOC127781497; full-length cDNA in pEXP5-CT/TOPO, E. coli BL21 Codon Plus, desalted extract
T2 sequence (I1QFJ1 1-575): T1 sequence (A0A0D3GW75 1-575)

ObTPS1 [3] = target: T3, ObTPS1 (Oryza barthii, UniProt A0A0D3GW75, F318L/C429G/V433I)
T3 construct: full-length cDNA in pEXP5-CT/TOPO, E. coli BL21 Codon Plus, desalted extract

[4] = target: T4, OryzaTPS1 (O. glumaepatula) (Oryza glumipatula, UniProt A0A076L503)
T4 construct: full-length cDNA in pEXP5-CT/TOPO, E. coli BL21 Codon Plus, desalted extract
T4 sequence (A0A076L503 1-574): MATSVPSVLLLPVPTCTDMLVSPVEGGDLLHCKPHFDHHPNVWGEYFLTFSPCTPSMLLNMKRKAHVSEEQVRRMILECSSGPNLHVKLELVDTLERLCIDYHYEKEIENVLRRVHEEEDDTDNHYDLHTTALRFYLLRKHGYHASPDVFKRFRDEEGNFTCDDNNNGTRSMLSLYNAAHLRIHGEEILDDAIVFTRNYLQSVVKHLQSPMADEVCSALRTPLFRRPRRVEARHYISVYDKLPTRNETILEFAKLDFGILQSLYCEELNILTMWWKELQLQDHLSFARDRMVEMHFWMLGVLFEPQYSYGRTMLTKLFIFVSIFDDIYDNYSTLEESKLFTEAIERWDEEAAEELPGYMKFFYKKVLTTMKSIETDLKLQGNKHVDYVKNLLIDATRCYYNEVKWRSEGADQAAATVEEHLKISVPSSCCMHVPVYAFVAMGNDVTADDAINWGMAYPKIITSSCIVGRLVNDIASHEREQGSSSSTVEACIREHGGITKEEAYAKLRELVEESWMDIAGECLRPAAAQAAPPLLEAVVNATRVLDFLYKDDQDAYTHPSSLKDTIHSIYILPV

OryzaTPS1 (O. nivara) = target: T5, OryzaTPS1 (O. nivara) (Oryza nivara, UniProt A0A076L4Z9)
T5 construct: full-length cDNA in pEXP5-CT/TOPO, E. coli BL21 Codon Plus, desalted extract
T5 sequence (A0A076L4Z9 1-575): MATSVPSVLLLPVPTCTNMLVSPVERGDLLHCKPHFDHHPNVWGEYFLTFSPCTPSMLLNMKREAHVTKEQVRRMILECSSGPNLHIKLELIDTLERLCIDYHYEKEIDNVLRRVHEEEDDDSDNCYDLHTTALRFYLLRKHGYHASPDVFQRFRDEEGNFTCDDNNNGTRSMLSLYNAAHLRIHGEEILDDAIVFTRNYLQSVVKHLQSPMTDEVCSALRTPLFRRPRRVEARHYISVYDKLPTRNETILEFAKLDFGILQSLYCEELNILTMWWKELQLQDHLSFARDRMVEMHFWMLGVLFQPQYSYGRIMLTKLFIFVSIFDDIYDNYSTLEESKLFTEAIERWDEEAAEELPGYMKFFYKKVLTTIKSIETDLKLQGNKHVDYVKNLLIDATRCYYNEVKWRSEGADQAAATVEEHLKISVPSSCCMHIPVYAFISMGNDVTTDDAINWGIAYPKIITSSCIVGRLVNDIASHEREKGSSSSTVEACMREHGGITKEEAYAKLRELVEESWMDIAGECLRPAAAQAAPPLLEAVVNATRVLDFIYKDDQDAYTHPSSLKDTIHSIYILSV

T3 sequence (A0A0D3GW75 entry or part of it F318L/C429G/V433I): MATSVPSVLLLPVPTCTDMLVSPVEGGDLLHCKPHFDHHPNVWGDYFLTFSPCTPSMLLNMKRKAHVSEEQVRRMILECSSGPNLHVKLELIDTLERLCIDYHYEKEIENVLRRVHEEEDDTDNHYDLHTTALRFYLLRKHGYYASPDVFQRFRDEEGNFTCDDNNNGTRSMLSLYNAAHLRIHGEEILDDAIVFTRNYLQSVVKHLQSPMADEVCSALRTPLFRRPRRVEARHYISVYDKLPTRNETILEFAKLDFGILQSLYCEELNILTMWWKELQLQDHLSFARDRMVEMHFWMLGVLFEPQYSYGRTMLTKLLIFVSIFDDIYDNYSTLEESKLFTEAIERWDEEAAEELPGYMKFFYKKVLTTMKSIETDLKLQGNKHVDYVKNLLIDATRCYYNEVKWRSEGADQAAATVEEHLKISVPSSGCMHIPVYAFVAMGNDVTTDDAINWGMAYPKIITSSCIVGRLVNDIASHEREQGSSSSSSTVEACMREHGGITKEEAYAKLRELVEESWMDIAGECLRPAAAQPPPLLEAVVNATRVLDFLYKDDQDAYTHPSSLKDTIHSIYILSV

CC(C)=CCC/C(C)=C/CC/C(C)=C/COP(=O)(O)OP(=O)(O)O [(E, E)-farnesyl diphosphate]
SPME GC-MS product analysis, recombinant E. coli extract (ObTPS1 [1]): The enzymes were expressed in E. coli, extracted, and incubated with the substrate (E, E)-farnesyl diphosphate | SPME GC-MS product analysis, recombinant E. coli extract [2]: All these proteins were biochemically active | SPME GC-MS product analysis, recombinant E. coli extract (ObTPS1 [3]): The triple mutant ObTPS1-F318L + C429G + V433I produced comparable amounts of germacrene A, germacrene D | SPME GC-MS product analysis, recombinant E. coli extract [4]: All these proteins were biochemically active | SPME GC-MS product analysis, recombinant E. coli extract (OryzaTPS1 (O. nivara)): All these proteins were biochemically active
